By pKa is commonly meant the negative logarithm of the acid dissociation constant.

The text below walks through data of US7417048B2, “Aryl-substituted derivatives of cycloalkyl and branched chain alkyl carboxylic acids useful as antinociceptive drugs for peripheral targets” (priority 2003, dated 2008).

The subject of one data set is lips and nasal mucous membranes. The data set can be described thus: Cooling effect of suspension applied to lips and nasal mucous membranes. The note with it: 20 mg/ml suspension in saline-10% Tween 80, lips and nasal mucous membranes. The class given is in vivo, human. From the text: Sulfadiazine is used as antibiotic for urinary tract infections and its silver salt is also used a topical antibiotic for the treatment of burn wounds. One peripheral antinociceptive compound of this discovery is derived from sulfadiazine as the -ZR″ group, and has the structure illustrated by Formula 3. […] The embodiment, coded as CPS-125, also activated the TRP-M8 coolness receptor, but not TRP-A1. […] Sulfonamides are used as topical and systemic antibiotics. Generally, these drugs are used at doses of 500 mg to gram quantities, and have relatively low toxic side effects except for the risks of renal crystalluria and drug hypersensitivity reactions. […] (St. Louis, Mo.) and coupled to p-menthoyl chloride, using the chemical synthesis described above. Each compound was then tested at 20 mg/ml on the lips and nasal mucous membranes. The compounds were added to sterile saline-10% Tween 80 mixture and stirred using a glass rod until the mixture was a homogeneous suspension. Using a clean glass rod, the suspension was first applied to the lips and nasal vestibule. After this trial, a dropper was used to apply the suspension into the nostrils, at a volume of 0.06 ml in 2 droplets per nostril.
For `CC1CCC(C(C)C)C(C(=O)Nc2ccc(S(N)(=O)=O)cc2)C1` (centres unmarked) [CPS-126], the “cooling effect on the lips and on breathing sensation” value was “inactive”.
Turning to `COc1cc(NS(=O)(=O)c2ccc(NC(=O)C3CC(C)CCC3C(C)C)cc2)nc(OC)n1` (centres unmarked) [sulfadimethoxine analog], the “cooling effect on the lips and on breathing sensation” value was “slightly active”.
On to `COc1cnc(NS(=O)(=O)c2ccc(NC(=O)C3CC(C)CCC3C(C)C)cc2)nc1` (centres unmarked) [sulfameter analog], for which the “cooling effect on the lips and on breathing sensation” value was “moderate activities”.
Take `COc1ccc(NS(=O)(=O)c2ccc(NC(=O)C3CC(C)CCC3C(C)C)cc2)nn1` (centres unmarked) [sulfamethoxypyridazine analog]: the “cooling effect on the lips and on breathing sensation” value is recorded as “moderate activities”.
Turning to `Cc1noc(NS(=O)(=O)c2ccc(NC(=O)C3CC(C)CCC3C(C)C)cc2)c1C` (centres unmarked) [sulfisoxazole analog], the “cooling effect on the lips and on breathing sensation” value is given as “slightly active”.

Tested on in a further data set: not given
Assay: not given
The note with it: cited from earlier work.
As for `Nc1ccc(S(=O)(=O)NC(=O)CCl)cc1` [N1-chloroacetylsulfanilamide], the pKa was 3.79.
For the compound `Nc1ccc(C(=O)NS(=O)(=O)c2ccc(N)cc2)cc1` [N1-p-aminobenzoylsulfanilamide], the pKa is 5.20.
For the compound `Nc1ccc(S(=O)(=O)Nc2nncs2)cc1` [S-1,3,4-thiadiazole], the pKa is 4.77.
Take `Nc1ccc(S(=O)(=O)Nc2ccccn2)cc1` [sulfapyridine]: the pKa is listed as 8.43.
`Nc1ccc(S(=O)(=O)Nc2nccs2)cc1` [sulfathiazole]: the pKa was 7.12.

Tested on in the next data set: not listed separately
Put plainly: Threshold cooling effect of p-menthane carboxylic acid esters. The note with it: p-menthane-COOR esters. The class given is in vivo, human. From the text: Neurophysiological and Molecular Mechanisms of Drug Action. The procedures described previously are used in drug screening. Experimentally there are additional methods to identify peripheral antinociceptive pharmacophore-compounds on sensory nerve endings. TRP receptors are present in sensory neurons. At the molecular level, the interactions of these peripheral antinociceptive pharmacophore-compounds with various TRP receptors can be characterized. The methods for such receptor studies were described by Laus et al. (Prostate tumor nucleotide compositions and methods of detection thereof. U.S. Pat. No. 6,194,152 B1, Feb. 27, 2001), and by Bevan et al. (Vanilloid receptor-related nucleic acids and polypeptides. U.S. 2003/0157633 A1, Aug. 21, 2003) and Julius et al. (Methods of modulating cold sensory perception. U.S. 2003/0219834 A1, Nov. 27, 2003), herein incorporated by reference. In the patent by Laus et al. it is noted that activation of trp-p8 by specific agonists of this receptor may also be utilized for the treatment of prostate disorders such prostate neoplasia. The use of peripheral antinociceptive pharmacophore-compounds of this discovery for prostate disorders is also contemplated in the present patent application. Identification of Pharmacophore. […] Based on this information, the pharmacophore precursor was selected and then the -ZR″ moiety was placed on the molecule to form the peripheral antinociceptive pharmacophore compounds of this discovery with desired pharmacokinetics and adequate delivery of pharmacophore to the target.
In the case of `CC1(C)OCC(CO)O1` (centres unmarked), the “Threshold Cooling Effect” value came out at 11 µg.
For `CC(=O)OCCOC(=O)C1CC(C)CCC1C(C)C` (centres unmarked) [2-acetoxoyethanol], the “Threshold Cooling Effect” value amounted to 33 µg.
Turning to `CC(C)(O)C(=O)O` [2-hydroxy-2-methylpropanoic acid], the “Threshold Cooling Effect” value was found to be 20 µg.
Regarding `Cc1cc(O)cc(O)c1` [3,5-dihydroxytoluene], the “Threshold Cooling Effect” value is 15 µg.
For the compound `OCCCCO` [butan-1,4-diol], the “Threshold Cooling Effect” value came to 12 µg.
Consider `CC(O)C(C)O` (centres unmarked) [butan-2,3-diol], for which the “Threshold Cooling Effect” value was determined as 3 µg.
Turning to `OCC#CCO` [butyn-1,4-diol], the “Threshold Cooling Effect” value was found to be 6 µg.
Still for that read-out and setting: to `OC1CCCCC1O` (centres unmarked) [cyclohexan-1,2-diol] belongs 4 µg; to `OCCOCCO` [diethylene glycol], 1 µg; to `CCOC(=O)C(C)O` (centres unmarked) [ethyl lactate], 50 µg.
As for `OCCO` [ethylene glycol], the “Threshold Cooling Effect” value was determined as 1.5 µg.
As for `OCC(O)CO` [glycerol], the “Threshold Cooling Effect” value was 1.2 µg.
As for `CC1CCC(C(C)C)C(C(=O)OCC(=O)O)C1` (centres unmarked) [glycollic acid], the “Threshold Cooling Effect” value is 15 µg.
`CC(O)C(=O)O` (centres unmarked) [lactic acid]: the “Threshold Cooling Effect” value amounted to 8 µg.
Turning to `OCCCO` [propan-1,3-diol], the “Threshold Cooling Effect” value was determined as 7 µg.
For the compound `CC(O)CO` (centres unmarked) [propylene glycol], the “Threshold Cooling Effect” value came to 1.4 µg.
For the compound `OC[C@@H](O)[C@@H](O)[C@H](O)[C@@H](O)CO` [sorbitol], the “Threshold Cooling Effect” value was 50 µg.
Still for that read-out and setting: under `OCCOCCOCCO` [triethylene glycol] stands 5 µg; under hexylene glycol, 8 µg.

For the next data set, the target named is T1, mouse TRP-M8 receptor (Mus musculus, UniProt Q8R4D5).
T1 construct: expressed in transfected cells; host or cells: human embryonic kidney cells (transient transfection)
T1 sequence (Q8R4D5 whole entry): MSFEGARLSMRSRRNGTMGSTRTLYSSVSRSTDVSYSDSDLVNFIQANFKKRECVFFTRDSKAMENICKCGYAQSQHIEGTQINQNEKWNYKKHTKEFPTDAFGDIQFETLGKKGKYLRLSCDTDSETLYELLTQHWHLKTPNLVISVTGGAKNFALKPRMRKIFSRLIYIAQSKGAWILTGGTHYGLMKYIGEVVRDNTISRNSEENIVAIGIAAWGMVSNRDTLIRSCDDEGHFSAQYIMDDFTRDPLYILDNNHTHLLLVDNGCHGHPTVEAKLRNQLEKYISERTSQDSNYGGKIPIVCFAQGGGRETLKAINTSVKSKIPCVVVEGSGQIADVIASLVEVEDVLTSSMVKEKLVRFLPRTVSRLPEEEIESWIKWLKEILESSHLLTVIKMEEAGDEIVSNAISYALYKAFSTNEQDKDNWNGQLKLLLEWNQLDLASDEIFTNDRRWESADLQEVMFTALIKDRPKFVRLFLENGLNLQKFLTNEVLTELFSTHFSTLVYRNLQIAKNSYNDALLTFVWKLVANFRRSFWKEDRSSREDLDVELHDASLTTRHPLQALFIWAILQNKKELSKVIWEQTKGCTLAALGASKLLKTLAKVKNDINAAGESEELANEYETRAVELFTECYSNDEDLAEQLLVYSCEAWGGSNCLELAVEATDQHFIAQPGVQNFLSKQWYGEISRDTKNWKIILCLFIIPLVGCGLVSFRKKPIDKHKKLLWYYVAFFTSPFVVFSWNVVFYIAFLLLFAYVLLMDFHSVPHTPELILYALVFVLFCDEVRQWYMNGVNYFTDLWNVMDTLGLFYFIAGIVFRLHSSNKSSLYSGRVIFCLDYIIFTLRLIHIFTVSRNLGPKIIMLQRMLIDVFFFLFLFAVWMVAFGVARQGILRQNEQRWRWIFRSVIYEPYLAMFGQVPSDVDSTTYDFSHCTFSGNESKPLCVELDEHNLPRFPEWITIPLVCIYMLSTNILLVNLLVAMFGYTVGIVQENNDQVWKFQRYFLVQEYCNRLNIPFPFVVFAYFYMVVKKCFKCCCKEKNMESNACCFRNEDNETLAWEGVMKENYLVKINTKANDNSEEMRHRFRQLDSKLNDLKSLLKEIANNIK
The data set can be described thus: Voltage patch-clamp of HEK cells transiently transfected with mouse TRP-M8. The class given is cell-based. The note with it: 1 μM, applied 10 sec, at least 4 cells. Here is the method:
Human embryonic kidney cells were transiently transfected with the gene for the mouse TRP-M8 receptor. These cells were then voltage patch-clamped in a standard microscopic apparatus and the test solution electronically applied for 10 sec. The integrated areas of the inward current, measured in picoAmperes were then recorded. Icilin a standard cooling antinociceptive agent was used the positive control. Test substances were applied at 1 μM to at least 4 cells and the current recorded.
For orientation: Patch clamp records ionic current or voltage across a cell membrane.
On to `CC1CCC(C(C)C)C(C(=O)Nc2ccc(S(N)(=O)=O)cc2)C1` (centres unmarked) [CPS-126], for which the “activity relative to icilin (integrated inward current, icilin as 100)” value turned out to be 2%.

The target of another data set is T2, human TRP-M8 receptor (Homo sapiens, UniProt Q7Z2W7).
T2 construct: expressed in transfected cells; host or cells: human embryonic kidney cells (permanent transfection)
T2 sequence (Q7Z2W7 whole entry): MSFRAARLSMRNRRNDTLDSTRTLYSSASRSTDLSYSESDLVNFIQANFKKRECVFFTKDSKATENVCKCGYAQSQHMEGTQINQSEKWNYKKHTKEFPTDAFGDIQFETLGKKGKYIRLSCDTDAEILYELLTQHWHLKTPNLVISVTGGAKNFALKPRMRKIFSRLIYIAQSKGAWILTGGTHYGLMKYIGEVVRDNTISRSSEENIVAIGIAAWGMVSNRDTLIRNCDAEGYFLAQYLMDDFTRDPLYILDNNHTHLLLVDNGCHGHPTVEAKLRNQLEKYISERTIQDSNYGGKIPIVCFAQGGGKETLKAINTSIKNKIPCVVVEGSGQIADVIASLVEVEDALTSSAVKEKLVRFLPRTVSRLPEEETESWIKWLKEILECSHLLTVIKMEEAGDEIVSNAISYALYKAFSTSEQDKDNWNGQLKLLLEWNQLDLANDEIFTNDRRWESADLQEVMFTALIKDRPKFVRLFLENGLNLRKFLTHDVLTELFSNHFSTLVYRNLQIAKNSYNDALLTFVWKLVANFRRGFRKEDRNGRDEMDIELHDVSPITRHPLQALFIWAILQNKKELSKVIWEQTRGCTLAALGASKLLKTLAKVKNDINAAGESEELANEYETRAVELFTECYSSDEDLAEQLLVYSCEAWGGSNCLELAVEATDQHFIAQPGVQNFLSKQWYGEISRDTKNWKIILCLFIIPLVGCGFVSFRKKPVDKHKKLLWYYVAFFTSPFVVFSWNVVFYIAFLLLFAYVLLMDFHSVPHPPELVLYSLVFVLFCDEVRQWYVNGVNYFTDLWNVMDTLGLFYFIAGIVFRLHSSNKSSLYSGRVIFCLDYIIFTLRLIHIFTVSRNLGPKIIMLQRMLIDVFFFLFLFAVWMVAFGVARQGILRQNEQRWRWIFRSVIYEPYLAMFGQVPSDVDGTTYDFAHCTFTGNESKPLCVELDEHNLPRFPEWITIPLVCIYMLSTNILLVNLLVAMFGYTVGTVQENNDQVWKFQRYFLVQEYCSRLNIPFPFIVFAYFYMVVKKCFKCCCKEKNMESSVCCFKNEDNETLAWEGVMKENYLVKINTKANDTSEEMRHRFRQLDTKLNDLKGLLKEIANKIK
Put plainly: Fura-2 calcium fluorescence in HEK cells permanently transfected with human TRP-M8. The class given is cell-based. The note with it: Fura-2, 29 or 37° C., 96-well plate reader; read-out: EC50 (median effective concentration, calcium influx). Here is the method: Human embryonic kidney cells were permanently transfected with the gene for the human TRP-M8 receptor. These cells were then incubated with a calcium fluorescence indicator (Fura-2) and incubated at either 29 or 37° C. These cells were then distributed into a 96-well fluorescence-plate image reader with automated drug dilution and computerized software for dose-response analysis. The influx of calcium upon drug stimulated was quantified in fluorescence units.
Regarding `COc1cc(NS(=O)(=O)c2ccc(NC(=O)C3CC(C)CCC3C(C)C)cc2)nc(OC)n1` (centres unmarked) [sulfadimethoxine analog], the EC50 came to 60 µM.

The test system of the next data set is tongue of the test subject. Put plainly: Cold sensation threshold on tongue, impregnated filter paper. The class given is in vivo, human. The note with it: filter paper 1 × 1 cm on tongue, 30 sec, presence or absence of cooling effect.
Take `CC1CCC(C(C)C)C(C(=O)Nc2ccc(Cl)cc2)C1` (centres unmarked) [N-(4′-chlorophenyl)-2-isopropyl-5-methylcyclohexanecarboxamide]: the “Cold Sensation Threshold on Tongue” value was determined as 8 µg.
On the same count and under the same terms, under `CCOC(=O)c1ccc(NC(=O)C2CC(C)CCC2C(C)C)cc1` (centres unmarked) [N-(4′-ethoxycarbonylphenyl)-2-isopropyl-5-methylcyclohexanecarboxamide] stands 5 µg; under `CC1CCC(C(C)C)C(C(=O)Nc2ccc(F)cc2)C1` (centres unmarked) [N-(4′-fluorophenyl)-2-isopropyl-5-methylcyclohexanecarboxamide], 0.5 µg; under `CC1CCC(C(C)C)C(C(=O)Nc2ccc(O)cc2)C1` (centres unmarked) [N-(4′-hydroxyphenyl)-2-isopropyl-5-methylcyclohexanecarboxamide], 1 µg.
`COc1ccc(NC(=O)C2(C(C)C)CCCCCC2)c(C)c1` [N-(4′-methoxy-2′-methylphenyl)-1-isopropylcycloheptanecarboxamide]: the “Cold Sensation Threshold on Tongue” value came to 0.2 µg.
On the same count and under the same terms, under `COc1ccc(NC(=O)C2CC3CCC2(C)C3(C)C)cc1` (centres unmarked) [N-(4′-methoxyphenyl)-1,7,7-trimethylbicyclo[2.2.1]heptane-2-carboxamide] stands 8 µg.
`CCC1(C(=O)Nc2ccc(OC)cc2)CCCCCC1C` (centres unmarked) [N-(4′-methoxyphenyl)-1-ethyl-2-methylcycloheptanecarboxamide]: the “Cold Sensation Threshold on Tongue” value came to 6 µg.
Regarding `COc1ccc(NC(=O)C(C)(C(C)C)C(C)C)cc1` [N-(4′-methoxyphenyl)-2-isopropyl-2,3-dimethylbutyramide], the “Cold Sensation Threshold on Tongue” value is 0.5 µg.
On the same count and under the same terms, to `COc1ccc(NC(=O)C(C)(CC(C)C)C(C)C)cc1` (centres unmarked) [N-(4′-methoxyphenyl)-2-isopropyl-2,4-dimethylpentanamide] belongs 2 µg; to `COc1ccc(NC(=O)C2CC(C)CCC2C(C)C)cc1` (centres unmarked) [N-(4′-methoxyphenyl)-2-isopropyl-5-methylcyclohexanecarboxamide], 0.1 µg.
`COc1ccc(NC(=O)C2C3CCC(C3)C2(C)C)cc1` (centres unmarked) [N-(4′-methoxyphenyl)-3,3-dimethylbicyclo[2.2.1]heptane-2-carboxamide]: the “Cold Sensation Threshold on Tongue” value was found to be 20 µg.
With `COc1ccc(NC(=O)C2C3C=CC(C3)C2CC(C)C)cc1` (centres unmarked) [N-(4′-methoxyphenyl)-3-isobutylbicyclo[2.2.1]hept-5-ene-2-carboxamide], the “Cold Sensation Threshold on Tongue” value was determined as 4 µg.
Regarding `COc1ccc(NC(=O)C2C3CCC(C3)C2C(C)C)cc1` (centres unmarked) [N-(4′-methoxyphenyl)-3-isopropylbicyclo[2.2.1]heptane-2-carboxamide], the “Cold Sensation Threshold on Tongue” value came to 15 µg.
Regarding `CC1CCC(C(C)C)C(C(=O)Nc2ccc([N+](=O)[O-])cc2)C1` (centres unmarked) [N-(4′-nitrophenyl)-2-isopropyl-5-methylcyclohexanecarboxamide], the “Cold Sensation Threshold on Tongue” value is 0.3 µg.
On to `CC1CCC(C(C)C)C(C(=O)Nc2ccccc2)C1` (centres unmarked) [N-phenyl-2-isopropyl-5-methylcyclohexanecarboxamide], for which the “Cold Sensation Threshold on Tongue” value came to 20 µg.
Still for that read-out and setting: to `CC1CCC(C(C)C)C(C(=O)NCc2ccccc2)C1` (centres unmarked) [N-phenylmethyl-2-isopropyl-5-methylcyclohexanecarboxamide] belongs 20 µg.
